Results taken from patent US4757133A, “Physiologically active peptide” (Eisai Co., Ltd., priority 1986, dated 1988).
Peptide text beside a SMILES is read from it.

tested on: smooth muscle of a bronchus; assay: Relaxation of muscle of bronchus removed from guinea pig (histamine-contracted tracheal chain, four-point assay); conditions: isolated guinea pig trachea chain, 6.5×10^-6 M histamine in Krebs solution at 37° C.; samples at 10^-5 M; area value of VIP-NH2 taken as 100%
Excerpt: A. Determination on Relaxation of Muscle of Bronchus Removed from Guinea Pig:
The juglar vein of a male guinea pig weighing 300 g or more is cut, causing the guinea pig to be bled to death. The guinea pig undergoes thoracotomy. Immediately after the thoracotomy, 3 cm of the trachea is taken out. The trachea is immediately put in a Krebs solution. It is then cut into seven equal rings, and the cartilages are connected to one another with a cotton yarn to form a chain. Subsequently, the smooth muscle parts and cartilages opposite them are cut, so that the smooth muscle parts can be connected to one another. The preparation thus prepared is placed in an isothermic glass cell having an internal capacity of about 7 ml and suspended from above. The lower part of the preparation is fixed, while the upper part is connected to an isometric transducer, to which 0.5 g of a load has been applied, in order to determine the relaxation reaction. Sufficient amounts of 95% oxygen and 5% carbon dioxide gas are blown into the preparation. Further, a Krebs solution of 37° C. containing 6.5×10^-6 M histamine is dropped on the preparation from above at a flow rate of 3.3 ml/min. The relaxation reaction takes place to an extent proportional to the amount of a sample added to the dropped solution. By utilizing this relationship, the relaxation activity against bronchial smooth muscle with respect to the substance of the present invention is compared with that of VIP-NH2. VIP-NH2 is used at a concentration of 10^-5 M and dropped in amounts of 40 μl and 80 μl. The substance of the present invention is also used at a concentration of 10^-5 M and dropped in amounts of 10 μl and 20 μl. The value of the area (height×time) in relaxation of each case is determined. The specific activities are obtained by taking the area value of VIP-NH2 as 100% and determining the relative ratio of the area value of each case. Thus, the relaxation reactions are compared by the four-point assay method, with respect to the above-mentioned determination method, reference may be made to the following articles (e) and (f):
(e) W. L. M. Perry, Pharmacological Experiments on Isolated Preparations: E & S Livingstone LTD. 1968; and
(f) Castillo, De Beer, J. Phamac. Exp. Ther. 90, 104 (1947).

| SMILES | A: specific activity (%) obtained by method A (relaxation area value relative to VIP-NH2) [%] |
| --- | --- |
| CC[C@H](C)[C@H](NC(=O)[C@H](CO)NC(=O)[C@H](CC(N)=O)NC(=O)[C@H](CC(C)C)NC(=O)[C@H](Cc1ccc(O)cc1)NC(=O)[C@H](CCCCN)NC(=O)[C@H](CCCCN)NC(=O)[C@@H](NC(=O)[C@H](C)NC(=O)[C@H](CC(C)C)NC(=O)[C@H](CCC(N)=O)NC(=O)[C@H](CCCCN)NC(=O)[C@H](CCCNC(=N)N)NC(=O)[C@H](CC(C)C)NC(=O)[C@H](CCCNC(=N)N)NC(=O)[C@@H](NC(=O)[C@H](Cc1ccc(O)cc1)NC(=O)[C@H](CC(N)=O)NC(=O)[C@H](CC(=O)O)NC(=O)[C@@H](NC(=O)[C@H](Cc1ccccc1)NC(=O)[C@@H](NC(=O)[C@H](C)NC(=O)[C@H](CC(=O)O)NC(=O)[C@H](CO)NC(=O)[C@@H](N)Cc1c[nH]cn1)C(C)C)[C@@H](C)O)[C@@H](C)O)C(C)C)C(=O)N[C@@H](CC(C)C)C(=O)N[C@@H](CC(N)=O)C(=O)NCC(=O)N[C@@H](CCCCN)C(=O)N[C@@H](CCCNC(=N)N)C(=O)O [X=Leu Y=Lys-Arg-OH] (H-HSDAVFTDNYTRLRKQLAVKKYLNSILNGKR-OH) | 410 |
| CC[C@H](C)[C@H](NC(=O)[C@H](CO)NC(=O)[C@H](CC(N)=O)NC(=O)[C@H](CC(C)C)NC(=O)[C@H](Cc1ccc(O)cc1)NC(=O)[C@H](CCCCN)NC(=O)[C@H](CCCCN)NC(=O)[C@@H](NC(=O)[C@H](C)NC(=O)[C@H](CC(C)C)NC(=O)[C@H](CCC(N)=O)NC(=O)[C@H](CCCCN)NC(=O)[C@H](CCCNC(=N)N)NC(=O)[C@H](CC(C)C)NC(=O)[C@H](CCCNC(=N)N)NC(=O)[C@@H](NC(=O)[C@H](Cc1ccc(O)cc1)NC(=O)[C@H](CC(N)=O)NC(=O)[C@H](CC(=O)O)NC(=O)[C@@H](NC(=O)[C@H](Cc1ccccc1)NC(=O)[C@@H](NC(=O)[C@H](C)NC(=O)[C@H](CC(=O)O)NC(=O)[C@H](CO)NC(=O)[C@@H](N)Cc1c[nH]cn1)C(C)C)[C@@H](C)O)[C@@H](C)O)C(C)C)C(=O)N[C@@H](CC(C)C)C(=O)N[C@@H](CC(N)=O)C(=O)NCC(=O)N[C@@H](CCCCN)C(N)=O [X=Leu Y=Lys-NH2] (H-HSDAVFTDNYTRLRKQLAVKKYLNSILNGK-NH2) | 300 |
| CC[C@H](C)[C@H](NC(=O)[C@H](CO)NC(=O)[C@H](CC(N)=O)NC(=O)[C@H](CC(C)C)NC(=O)[C@H](Cc1ccc(O)cc1)NC(=O)[C@H](CCCCN)NC(=O)[C@H](CCCCN)NC(=O)[C@@H](NC(=O)[C@H](C)NC(=O)[C@H](CC(C)C)NC(=O)[C@H](CCC(N)=O)NC(=O)[C@H](CCCCN)NC(=O)[C@H](CCCNC(=N)N)NC(=O)[C@H](CC(C)C)NC(=O)[C@H](CCCNC(=N)N)NC(=O)[C@@H](NC(=O)[C@H](Cc1ccc(O)cc1)NC(=O)[C@H](CC(N)=O)NC(=O)[C@H](CC(=O)O)NC(=O)[C@@H](NC(=O)[C@H](Cc1ccccc1)NC(=O)[C@@H](NC(=O)[C@H](C)NC(=O)[C@H](CC(=O)O)NC(=O)[C@H](CO)NC(=O)[C@@H](N)Cc1c[nH]cn1)C(C)C)[C@@H](C)O)[C@@H](C)O)C(C)C)C(=O)N[C@@H](CC(C)C)C(=O)N[C@@H](CC(N)=O)C(=O)NCC(=O)N[C@@H](CCCCN)C(=O)O [X=Leu Y=Lys-OH] (H-HSDAVFTDNYTRLRKQLAVKKYLNSILNGK-OH) | 410 |
| CC[C@H](C)[C@H](NC(=O)[C@H](CO)NC(=O)[C@H](CC(N)=O)NC(=O)[C@H](CC(C)C)NC(=O)[C@H](Cc1ccc(O)cc1)NC(=O)[C@H](CCCCN)NC(=O)[C@H](CCCCN)NC(=O)[C@@H](NC(=O)[C@H](C)NC(=O)[C@H](CCSC)NC(=O)[C@H](CCC(N)=O)NC(=O)[C@H](CCCCN)NC(=O)[C@H](CCCNC(=N)N)NC(=O)[C@H](CC(C)C)NC(=O)[C@H](CCCNC(=N)N)NC(=O)[C@@H](NC(=O)[C@H](Cc1ccc(O)cc1)NC(=O)[C@H](CC(N)=O)NC(=O)[C@H](CC(=O)O)NC(=O)[C@@H](NC(=O)[C@H](Cc1ccccc1)NC(=O)[C@@H](NC(=O)[C@H](C)NC(=O)[C@H](CC(=O)O)NC(=O)[C@H](CO)NC(=O)[C@@H](N)Cc1c[nH]cn1)C(C)C)[C@@H](C)O)[C@@H](C)O)C(C)C)C(=O)N[C@@H](CC(C)C)C(=O)N[C@@H](CC(N)=O)C(=O)NCC(=O)N[C@@H](CCCNC(=N)N)C(=O)O [X=Met Y=Arg-OH] | 220 |
| CC[C@H](C)[C@H](NC(=O)[C@H](CO)NC(=O)[C@H](CC(N)=O)NC(=O)[C@H](CC(C)C)NC(=O)[C@H](Cc1ccc(O)cc1)NC(=O)[C@H](CCCCN)NC(=O)[C@H](CCCCN)NC(=O)[C@@H](NC(=O)[C@H](C)NC(=O)[C@H](CCSC)NC(=O)[C@H](CCC(N)=O)NC(=O)[C@H](CCCCN)NC(=O)[C@H](CCCNC(=N)N)NC(=O)[C@H](CC(C)C)NC(=O)[C@H](CCCNC(=N)N)NC(=O)[C@@H](NC(=O)[C@H](Cc1ccc(O)cc1)NC(=O)[C@H](CC(N)=O)NC(=O)[C@H](CC(=O)O)NC(=O)[C@@H](NC(=O)[C@H](Cc1ccccc1)NC(=O)[C@@H](NC(=O)[C@H](C)NC(=O)[C@H](CC(=O)O)NC(=O)[C@H](CO)NC(=O)[C@@H](N)Cc1c[nH]cn1)C(C)C)[C@@H](C)O)[C@@H](C)O)C(C)C)C(=O)N[C@@H](CC(C)C)C(=O)N[C@@H](CC(N)=O)C(=O)NCC(=O)N[C@@H](CCCCN)C(=O)N[C@@H](CCCNC(=N)N)C(=O)O [X=Met Y=Lys-Arg-OH] | 460 |
| CC[C@H](C)[C@H](NC(=O)[C@H](CO)NC(=O)[C@H](CC(N)=O)NC(=O)[C@H](CC(C)C)NC(=O)[C@H](Cc1ccc(O)cc1)NC(=O)[C@H](CCCCN)NC(=O)[C@H](CCCCN)NC(=O)[C@@H](NC(=O)[C@H](C)NC(=O)[C@H](CCSC)NC(=O)[C@H](CCC(N)=O)NC(=O)[C@H](CCCCN)NC(=O)[C@H](CCCNC(=N)N)NC(=O)[C@H](CC(C)C)NC(=O)[C@H](CCCNC(=N)N)NC(=O)[C@@H](NC(=O)[C@H](Cc1ccc(O)cc1)NC(=O)[C@H](CC(N)=O)NC(=O)[C@H](CC(=O)O)NC(=O)[C@@H](NC(=O)[C@H](Cc1ccccc1)NC(=O)[C@@H](NC(=O)[C@H](C)NC(=O)[C@H](CC(=O)O)NC(=O)[C@H](CO)NC(=O)[C@@H](N)Cc1c[nH]cn1)C(C)C)[C@@H](C)O)[C@@H](C)O)C(C)C)C(=O)N[C@@H](CC(C)C)C(=O)N[C@@H](CC(N)=O)C(=O)NCC(=O)N[C@@H](CCCCN)C(N)=O [X=Met Y=Lys-NH2] | 140 |
| CC[C@H](C)[C@H](NC(=O)[C@H](CO)NC(=O)[C@H](CC(N)=O)NC(=O)[C@H](CC(C)C)NC(=O)[C@H](Cc1ccc(O)cc1)NC(=O)[C@H](CCCCN)NC(=O)[C@H](CCCCN)NC(=O)[C@@H](NC(=O)[C@H](C)NC(=O)[C@H](CCSC)NC(=O)[C@H](CCC(N)=O)NC(=O)[C@H](CCCCN)NC(=O)[C@H](CCCNC(=N)N)NC(=O)[C@H](CC(C)C)NC(=O)[C@H](CCCNC(=N)N)NC(=O)[C@@H](NC(=O)[C@H](Cc1ccc(O)cc1)NC(=O)[C@H](CC(N)=O)NC(=O)[C@H](CC(=O)O)NC(=O)[C@@H](NC(=O)[C@H](Cc1ccccc1)NC(=O)[C@@H](NC(=O)[C@H](C)NC(=O)[C@H](CC(=O)O)NC(=O)[C@H](CO)NC(=O)[C@@H](N)Cc1c[nH]cn1)C(C)C)[C@@H](C)O)[C@@H](C)O)C(C)C)C(=O)N[C@@H](CC(C)C)C(=O)N[C@@H](CC(N)=O)C(=O)NCC(=O)N[C@@H](CCCCN)C(=O)O [X=Met Y=Lys-OH] | 300 |
| CC[C@H](C)[C@H](NC(=O)[C@H](CO)NC(=O)[C@H](CC(N)=O)NC(=O)[C@H](CC(C)C)NC(=O)[C@H](Cc1ccc(O)cc1)NC(=O)[C@H](CCCCN)NC(=O)[C@H](CCCCN)NC(=O)[C@@H](NC(=O)[C@H](C)NC(=O)[C@H](CCSC)NC(=O)[C@H](CCC(N)=O)NC(=O)[C@H](CCCCN)NC(=O)[C@H](CCCNC(=N)N)NC(=O)[C@H](CC(C)C)NC(=O)[C@H](CCCNC(=N)N)NC(=O)[C@@H](NC(=O)[C@H](Cc1ccc(O)cc1)NC(=O)[C@H](CC(N)=O)NC(=O)[C@H](CC(=O)O)NC(=O)[C@@H](NC(=O)[C@H](Cc1ccccc1)NC(=O)[C@@H](NC(=O)[C@H](C)NC(=O)[C@H](CC(=O)O)NC(=O)[C@H](CO)NC(=O)[C@@H](N)Cc1c[nH]cn1)C(C)C)[C@@H](C)O)[C@@H](C)O)C(C)C)C(=O)N[C@@H](CC(C)C)C(=O)N[C@@H](CC(N)=O)C(=O)NCC(=O)O [X=Met Y=OH] | 70 |
